Earlier results in US20180028451A1, “IMMEADIATE RELEASE ORAL TABLET” (Boehringer Ingelheim International GmbH, priority 2015, published 2018).

Conditions: physiological pH range of the gastro-intestinal tract between pH 1 to 7

- solubility in aqueous systems: very poor solubility
Compound: CCCc1nc2c(C)cc(-c3nc4ccccc4n3C)cc2n1Cc1ccc(-c2ccccc2C(=O)O)cc1 [Telmisartan, 4′-[2-n-propyl-4-methyl-6-(1-methylbenzimidazol-2-yl)-benzimidazol-1-ylmethyl]-biphenyl-2-carboxylic acid]
